Measured values published in article PMC12705613 (Frontiers in Microbiology, 2025).

Assays:
in vivo = settings: rat, in vivo, po, 20 mg/kg; for MRT last: MRT0-t; for MRT inf: MRT 0-∞; for half-life: t1/2z; for AUC(0-inf): AUC0-∞
Description: The pharmacokinetic study was described as follows.
The UHPLC-TQ-MS analysis was conducted on an LC-30 AD ultra high-performance liquid chromatograph (Shimadzu, Japan) connected to an AB 4500 (AB Sciex, United States) Triple Quadrupole Mass Spectrometer with an ESI source. Chromatographic separation was achieved on an Acquity UHPLC HSS T3 column (100 × 2.1 mm, 1.8 μm) at 40 °C, and the eluent was aqueous formic acid (100:0.1, v/v) (A) and acetonitrile with formic acid (100:0.1, v/v) (B) at a flow rate of 0.3 mL min^−1. Gradient elution differs in the calculation of residual content and pharmacokinetic experiments. MRM mode was employed. Data processing was performed using Analyst Software (AB Sciex). The UHPLC-TQ-MS method validation was conducted in terms of selectivity, linearity, carryover, accuracy and precision, matrix effect, extraction recovery, dilution integrity, and stability under various conditions, which was performed in line with the FDA guidelines for bioanalytical assays. More details were described in the Supplementary material method.
The comparisons of the relative abundance of the genera between different groups were performed using the Wilcoxon rank-sum test. Comparisons between WKY and SHRs before and after CRO treatment were conducted using either a t-test or one-way ANOVA, with p values < 0.05 considered statistically significant. […] Graphs were created using GraphPad Prism 8.0 software.
For the determination of drug remaining contents in the supernatant, the gradient elution was as follows: 0.1–0.5 min at 45% B; 0.5–1.0 min at 45–65% B; 1.5–4.0 min at 65–85% B; 4.0–4.5 min at 85% B; 4.5–4.6 min at 85%–45% B; 4.6–5.0 min at 45% B. For pharmacokinetics, the gradient elution was performed as follows: 0–0.5 min at 30% B; 0.5–1.5 min at 30–45% B; 1.5–5.0 min at 45–60% B; 5.0–7.0 min at 60–80% B; 7.0–8.0 min at 80% B; 8.1–10.0 min at 30% B. The injection volume was 5 μ L. The multiple reaction monitoring (MRM) mode was used to detect analytes and IS in the positive ion mode. The mass spectrometry parameters were set as follows: ion spray voltage was 5500 V, turbo spray temperature (TEM) of 550℃; nebulizer gas (gas 1) of 50 psi; heater gas (gas 2) of 50 psi and curtain gas of 40 psi. Nitrogen was kept as the nebulizer and auxiliary gas.

[1] = system: Enterococcus faecalis (ATCC 51299); type: in vitro ADME; settings: tested concentrations; OD600
Description: (§1) Enterococcus faecalis (ATCC 51299, BNCC) was cultured in modified brain heart infusion (BHI) broth supplemented with L-cysteine HCl (0.5 g/L), vitamin K1 (10 mg/L), hemin (5 mg/L) and resazurin (1 mg/L). Limosilactobacillus reuteri (JCM 1112, Guangdong Academy of Sciences) was cultured in MRS medium at 37 °C in an anaerobic chamber (5%H2, 5%CO2 and 90%N2). Drug metabolism assays were performed in 96-well plates under optimal growth conditions for each strain. […] Each experiment comprised three biological replicates, including a bacteria-free control. The growth of strains was monitored by measuring OD600 (Eon Microplate Spectrophotometer, BioTek) every 2 h for the first 10 h, followed by 12 to 24 h intervals until 72 h. Supernatants were withdrawn at 6, 12, 24, 48, and 72 h. The remaining drug content and the formation of E-3179 were quantified via UHPLC-TQ-MS. The sample preparation for quantitative analysis was the same as in section 2.3.

[2] = system: Limosilactobacillus reuteri (JCM 1112); test: Co-incubation of drug with L. reuteri (degradation, growth); type: in vitro ADME; settings: tested concentrations; OD600
Description: as §1

[3] = Metabolites detection in vivo in plasma, feces and urine (UHPLC-Q-TOF-MS); design: species or system rat; settings: single oral losartan potassium 20 mg/kg
Description: For urine and feces, cumulative samples were collected over the following time intervals: 0–4, 4–8, 8–12, and 12–24 h after administration. The processing of the biological samples can be found in the Supplementary material.
The biological samples were processed as follows: For plasma, a total of 400 μL of pooled plasma was mixed by combining 50 μL aliquots from each time point. A 100 μL aliquot was mixed with 300 μL of methanol, vortexed for one minute, and centrifuged at 5,000 rpm for 10 minutes at 4°C [1]. In the case of urine, 1 mL was centrifuged at 4,000 rpm for 20 minutes at 4°C, and the supernatant was mixed with 2 mL of methanol, vortexed for one minute, and centrifuged at 12,000 rpm for 10 minutes at 4°C [2]. For fecal samples, 1.0 g of homogenized feces was extracted with 4 mL of methanol, sonicated in an ice-water bath for 20 minutes, and then centrifuged at 12,000 rpm for 10 minutes at 4°C [3]. Supernatants from the plasma, urine, and fecal extracts were evaporated under nitrogen gas, redissolved in methanol, and transferred to liquid chromatography vials. Samples were analyzed using UHPLC-Q-TOF-MS/MS for metabolite profiling.

[4] = Stability of the analytes in rat plasma at different storage conditions; type: in vitro ADME
Description: Analysis of QC samples was performed according to a standard curve, which was obtained from freshly prepared calibration standard samples. The autosampler stability was determined by placing samples in the autosampler rack at 8 ℃ for 24 h. The freeze-thaw stability was evaluated after three complete freeze-thaw cycles (-80 ℃ to 25 ℃) on consecutive days. The short-term stability was determined after samples were exposed to room temperature for 6 h. The long-term stability was assessed after storing the samples at -80 ℃ for 30 days. The analytes were considered stable if the deviation between the mean measured concentration and the nominal concentration was within ± 15.0%.

[5] = autosampler for 24 h (8 ℃), high nominal conc. (losartan 8000, E-3174 4000, E-3179 1600 ng/mL)
[6] = autosampler for 24 h (8 ℃), low nominal conc. (losartan 0.2, E-3174 10, E-3179 0.4 ng/mL)
[7] = autosampler for 24 h (8 ℃), middle nominal conc. (losartan 2000, E-3174 1000, E-3179 400 ng/mL)
[8] = room temperature for 6 h, high nominal conc. (losartan 8000, E-3174 4000, E-3179 1600 ng/mL)
[9] = room temperature for 6 h, low nominal conc. (losartan 0.2, E-3174 10, E-3179 0.4 ng/mL)
[10] = room temperature for 6 h, middle nominal conc. (losartan 2000, E-3174 1000, E-3179 400 ng/mL)
[11] = three freeze-thaw cycles, high nominal conc. (losartan 8000, E-3174 4000, E-3179 1600 ng/mL)
[12] = three freeze-thaw cycles, low nominal conc. (losartan 0.2, E-3174 10, E-3179 0.4 ng/mL)
[13] = three freeze-thaw cycles, middle nominal conc. (losartan 2000, E-3174 1000, E-3179 400 ng/mL)
[14] = −80°C for 30 days, high nominal conc. (losartan 8000, E-3174 4000, E-3179 1600 ng/mL)
[15] = −80°C for 30 days, low nominal conc. (losartan 0.2, E-3174 10, E-3179 0.4 ng/mL)
[16] = −80°C for 30 days, middle nominal conc. (losartan 2000, E-3174 1000, E-3179 400 ng/mL)

| Structure (SMILES) | Decrease of AUC0-∞ (in vivo; SHR compared with WKY) [%] | MRT0-t (in vivo; SHR) [h] | MRT 0-∞ (in vivo; SHR) [h] | t1/2z (in vivo; SHR) [h] | Cmax (in vivo; SHR, Cmax) [ng/mL] | MRT last (in vivo; SHR) [h] | MRT inf (in vivo; SHR) [h] | Tmax (in vivo; SHR, Tmax) [h] | half-life (in vivo; SHR) [h] | Cmax (in vivo; WKY) [ng/mL] | MRT0-t (in vivo; WKY) [h] | AUC(0-t) (in vivo; WKY, AUC0-t) [ng·h/mL] | AUC(0-inf) (in vivo; WKY) [ng·h/mL] | MRT last (in vivo; WKY) [h] | Inhibition of growth of E. faecalis [1] | Inhibition of growth of L. reuteri [2] | Abundance in feces and plasma, SHRs vs WKYs [3] | Stability RE [4, 5] [%] | Stability RE [4, 6] [%] | Stability RE [4, 7] [%] | also measured |
| --- | --- | --- | --- | --- | --- | --- | --- | --- | --- | --- | --- | --- | --- | --- | --- | --- | --- | --- | --- | --- | --- |
| CCCCc1nc(Cl)c(CO)n1Cc1ccc(-c2ccccc2-c2nn[nH]n2)cc1 [Losartan, Losartan potassium] | 50.24 | 7.64 ± 1.16 | 12.00 ± 2.70 | 6.04 ± 2.28 | 4000 ± 1770 | 6.79 ± 1.38 | 9.65 ± 3.34 | 0.25 | 5.91 ± 3.72 | 9331.32 ± 7242.24 | 9.99 ± 0.84 | 29900 ± 15400 | 39200 ± 20400 | 5.89 ± 2.1 | did not inhibit the growth | did not inhibit the growth | lower in SHRs than in WKYs | 8.67 | -4.05 | 12.50 | Decline of AUC0-t (in vivo; SHR compared with WKY): 39.88%; AUC0-∞ (in vivo; SHR): 19483.83 ± 4098.26 ng·h/mL; AUC(0-t) (in vivo; SHR): 18002.60 ± 2806.38 ng·h/mL; MRT 0-∞ (in vivo; WKY): 23.65 ± 16.03 h; t1/2z (in vivo; WKY): 13.67 ± 13.15 h; MRT inf (in vivo; WKY): 16.7 ± 19.2 h; half-life (in vivo; WKY): 13.6 ± 14.3 h; Abundance in urine, SHRs vs WKYs [3]: more abundant in urine; Stability RE [4, 8]: 5.37%; Stability RE [4, 9]: 12.66%; Stability RE [4, 10]: 10.42%; Stability RE [4, 11]: 6.18%; Stability RE [4, 12]: -2.68%; Stability RE [4, 13]: 9.49%; Stability RE [4, 14]: 4.25%; Stability RE [4, 15]: -7.51%; Stability RE [4, 16]: 12.98% |
| CCCCc1nc(Cl)c(C(=O)O)n1Cc1ccc(-c2ccccc2-c2nnn[nH]2)cc1 [E-3174] | 72.42 | 11.21 ± 0.73 | 21.63 ± 10.07 | 9.10 ± 8.85 | 1800 ± 1110 | 8.84 ± 1.59 | 15.1 ± 8.39 | 4.75 ± 2.56 | 10.1 ± 5.59 | 6985.09 ± 6023.88 | 12.64 ± 1.23 | 65000 ± 44100 | 78300 ± 41100 | 8.39 ± 2 | did not inhibit the growth | did not inhibit the growth | lower in SHRs than in WKYs | 2.69 | -4.63 | -1.40 | Tmax (in vivo; SHR): 7.00 ± 1.67 h; AUC(0-t) (in vivo; SHR, AUC0-t): 17600 ± 4270 ng·h/mL; AUC(0-inf) (in vivo; SHR): 21600 ± 3070 ng·h/mL; Stability RE [4, 8]: 0.27%; Stability RE [4, 9]: 3.95%; Stability RE [4, 10]: 11.23%; Stability RE [4, 11]: 5.22%; Stability RE [4, 12]: 0.33%; Stability RE [4, 13]: 8.12%; Stability RE [4, 14]: 5.50%; Stability RE [4, 15]: 1.75%; Stability RE [4, 16]: 5.09% |
